Test system: rumen liquor
Assay: In vitro test for methane production, modified Hohenheim Forage value Test (HFT)
Format: cell-based
Settings: TMR feed, 8 hours at 39° C., average of four to eight experiments
Method: In vitro test for methane production: A modified version of the “Hohenheim Forage value Test (HFT)” was used for testing the effect of specific compounds on the rumen functions mimicked by this in-vitro system.
Principle: Feed is gadded into a syringe with a composition of rumen liquor and an appropriate mixture of buffers. The solution is incubated at 39° C. After 8 hours the quantity (and composition) of gas phase produced is measured and put into a formula for conversion.
Sample weighing: The feed stuff (i.e. TMR (44% concentrate, 6% hay, 37% maize silage and 13% grass silage) is sieved to 1 mm and weighed exactly into 64 syringes. 4 of these syringes are the substrate controls, which display the gas production without the effect of the tested compounds. 4 other syringes are positive control (3-NOP, […]). When needed, 4 syringes contain a carrier control (if the test compounds need a carrier). The remaining syringes contain the test substances, by groups of 4 syringes, in the amounts as indicated in table 1.
• The components are mixed in a Woulff bottle in following order: • 711 ml water • 0.18 ml trace element solution • 355.5 ml buffer solution • 355.5 ml mass element solution • The completed solution is warmed up to 39° C. followed by the addition of 1.83 ml sodium salt solution and the addition of reduction solution at 36° C. • The rumen liquor is added, when the indicator turns colourless.
Extraction of the rumen liquor: 750 ml of rumen liquor are added to approximately 1,400 ml of medium solution under continued agitation and CO2-gassing.
Filling the syringes, incubation and determining gas volumes and VFA values: The diluted rumen fluid (24 ml) is added to the glass syringe. The syringes are then incubated for 8 hours at 39° C. under gentle agitation. After 8 hours, the volume of gas produced is measured, and the percentage of methane in the gas phase is determined by gas chromatography.
The food fermented was artificial TMR (44% concentrate, 6% hay, 37% maize silage and 13% grass silage). […]

| SMILES | Total methane change [% vs. control], found (DL 100 μM) [% vs. control] | Total methane change [% vs. control], found (PDMN 5 μM) [% vs. control] | Total methane change [% vs. control], found (PDMN 10 μM) [% vs. control] |
| --- | --- | --- | --- |
| C=C(C)C1CC=C(C)CC1 [DL, D-Limonene] | −1 | – | – |
| O=[N+]([O-])OCCCO [PDMN, Propanediol mononitrate] | – | −27 | −98 |

Reference: US20240207200A1, “USE OF PROPANDIOL MONONITRATE AND LIMONENE FOR REDUCING THE FORMATION OF METHANE EMANATING AND FOR IMPROVING THE DIGESTIBILITY” (DSM IP Assets B.V., priority 2021, published 2024)
